We go through 13 molecules from ChEMBL document CHEMBL3044964, “Synthesis of novel imidazo[2,1-b][1,3,4]thiadiazoles appended to sydnone as anticancer agents” (Med Chem Res, 2013).

For data set [1], the system named is Escherichia coli. The experiment in a line: Toxicity in wild type Escherichia coli AB1157 assessed as growth inhibition at 500 ug after 24 hr by agar well diffusion method. The format is organism-based. Particulars: in vivo. In general terms: In agar diffusion tests the substance spreads into inoculated agar from a disc or well.
The test system of data set [2] is Escherichia coli. The experiment in a line: Toxicity in wild type Escherichia coli AB1157 assessed as growth inhibition at 1000 ug after 24 hr by agar well diffusion method. It counts as organism-based. To be noted: in vivo.
Data set [3] relates to Escherichia coli. As to the kind of experiment: Toxicity in wild type Escherichia coli AB1157 assessed as growth inhibition after 24 hr by agar well diffusion method. It counts as organism-based. To be noted: in vivo.
Data set [4] relates to Escherichia coli. The experiment in a line: Toxicity in wild type Escherichia coli AB1157 assessed as growth inhibition at 2000 ug after 24 hr by agar well diffusion method. Particulars: in vivo. It counts as organism-based.
In data set [5] the test system is Escherichia coli. The experiment in a line: Toxicity in wild type Escherichia coli AB1157 assessed as growth inhibition at 125 ug after 24 hr by agar well diffusion method. Particulars: in vivo. The format is organism-based.
Data set [6] concerns Escherichia coli. The experiment in a line: Toxicity in wild type Escherichia coli AB1157 assessed as growth inhibition at 250 ug after 24 hr by agar well diffusion method. The format is organism-based. To be noted: in vivo.
For data set [7], the system named is HT-29. The experiment in a line: Cytotoxicity against Homo sapiens (human) HT-29 cells by SRB assay. It counts as functional. In general terms: In SRB staining, fixed cells bind dye roughly in proportion to their protein.
The test system of data set [8] is Escherichia coli. As to the kind of experiment: Induction of Escherichia coli DNA cleavage at 25 mg after 2 hr by agarose gel electrophoresis.

Converted amounts (≈) assume the structure as drawn. The source made the active and inactive calls. The calls are words filed in the database; no cut-off is given here.

`COc1ccc(-n2n[o+]c([O-])c2-c2nn3cc(-c4cc5cc(Br)ccc5oc4=O)nc3s2)cc1`: the “diameter of the inhibition zone (DIZ)” value in data set [1] was determined as 0 cm; in data set [2], 0.5 cm; in data set [4] it was 0.8 cm; in data set [6] it was 0 cm. The MIC in data set [3] worked out at 1 mg. Also, the “growth inhibition (GI)” value in data set [5] is reported as “Non-toxic”. The GI50 (as a rule, the concentration that inhibits growth by half) in data set [7] came out at 3.04 µg/mL (≈ 5.65 µM). In addition, the LC50 (in general, the concentration that kills 50% of the test population) in data set [7] was above 80 µg/mL. The total growth inhibition concentration (TGI) (as a rule, the concentration at which net growth stops) in data set [7] was below 30 µg/mL.

Consider `Cc1ccc(-n2n[o+]c([O-])c2-c2nn3cc(-c4cc5cc(Cl)ccc5oc4=O)nc3s2)cc1`, for which the “diameter of the inhibition zone (DIZ)” value in data set [1], in data set [2], in data set [4] and in data set [6] was 0 cm throughout. Besides, in data set [3], the MIC is above 2 mg. In addition, the “growth inhibition (GI)” value in data set [5] is reported as “Non-toxic”. For the same molecule, the outcome in data set [8] was Active. In data set [7], this molecule returned a GI50 of 7.9 µg/mL (≈ 16.5 µM). In data set [7], this molecule came in with an LC50 above 80 µg/mL. Moreover, the TGI in data set [7] was above 40 µg/mL.

As for `O=c1oc2ccccc2cc1-c1cn2nc(-c3c([O-])[o+]nn3-c3ccc(Cl)cc3)sc2n1`, the “diameter of the inhibition zone (DIZ)” value in data set [1], in data set [2], in data set [4] and in data set [6] was 0 cm throughout. In addition, the MIC in data set [3] was above 2 mg. Also, the “growth inhibition (GI)” value in data set [5] was “Non-toxic”. Further, the result in data set [8] was Active. Moreover, the concentration for 50% growth inhibition (GI50) in data set [7] stood at 4 µg/mL (≈ 8.62 µM). For the same molecule, the LC50 in data set [7] is above 80 µg/mL. Also, the concentration for total growth inhibition (TGI) in data set [7] is below 30 µg/mL.

For `O=c1oc2ccc(Cl)cc2cc1-c1cn2nc(-c3c([O-])[o+]nn3-c3ccc(Cl)cc3)sc2n1`, the “diameter of the inhibition zone (DIZ)” value in data set [1], in data set [2], in data set [4] and in data set [6] was 0 cm throughout. The MIC in data set [3] is above 2 mg. In addition, the “growth inhibition (GI)” value in data set [5] is reported as “Non-toxic”. Moreover, the outcome in data set [8] was Active. In data set [7], this molecule came in with a GI50 of 8 µg/mL (≈ 16.1 µM). The same molecule returned an LC50 in data set [7] above 80 µg/mL. Also, the TGI in data set [7] is above 40 µg/mL.

`O=c1oc2ccccc2cc1-c1cn2nc(-c3c([O-])[o+]nn3-c3ccccc3)sc2n1`: the “diameter of the inhibition zone (DIZ)” value in data set [1], in data set [2], in data set [4] and in data set [6] was 0 cm throughout. Also, the MIC in data set [3] was above 2 mg. For the same molecule, the “growth inhibition (GI)” value in data set [5] is listed as “Non-toxic”. Further, it took 6.3 µg/mL (≈ 14.7 µM) to inhibit growth in data set [7] by half (GI50). The LC50 in data set [7] is above 70 µg/mL. Also, in data set [7], the concentration for total growth inhibition (TGI) was above 30 µg/mL.

In the case of `O=c1oc2ccc(Cl)cc2cc1-c1cn2nc(-c3c([O-])[o+]nn3-c3ccccc3)sc2n1`, the “diameter of the inhibition zone (DIZ)” value in data set [1], in data set [2], in data set [4] and in data set [6] was 0 cm throughout. Moreover, in data set [3], the MIC was above 2 mg. For the same molecule, the “growth inhibition (GI)” value in data set [5] is “Non-toxic”. The 50% growth inhibitory concentration (GI50) in data set [7] turned out to be 7.7 µg/mL (≈ 16.6 µM). In data set [7], this molecule gave an LC50 above 80 µg/mL. This molecule showed a TGI in data set [7] above 40 µg/mL.

With `Cc1ccc(-n2n[o+]c([O-])c2-c2nn3cc(-c4cc5ccccc5oc4=O)nc3s2)cc1`, the “diameter of the inhibition zone (DIZ)” value in data set [1], in data set [2], in data set [4] and in data set [6] was 0 cm each time. Further, the MIC in data set [3] was above 2 mg. In data set [5], the “growth inhibition (GI)” value is “Non-toxic”. Further, the GI50 in data set [7] worked out at 4.23 µg/mL (≈ 9.54 µM). The LC50 in data set [7] is above 80 µg/mL. For the same molecule, the TGI in data set [7] was below 30 µg/mL.

Consider `COc1ccc(-n2n[o+]c([O-])c2-c2nn3cc(-c4cc5ccccc5oc4=O)nc3s2)cc1`, for which the “diameter of the inhibition zone (DIZ)” value in data set [1] was 0 cm; in data set [2], 0.5 cm; in data set [4], 0.8 cm; in data set [6], 0 cm. Besides, the MIC in data set [3] was 1 mg. The “growth inhibition (GI)” value in data set [5] is recorded as “Non-toxic”. Further, in data set [7], the concentration for 50% growth inhibition (GI50) is 3.14 µg/mL (≈ 6.83 µM). In addition, in data set [7], the LC50 is above 70 µg/mL. In addition, in data set [7], the total growth inhibition concentration (TGI) is below 30 µg/mL.

With `O=c1oc2ccc(Br)cc2cc1-c1cn2nc(-c3c([O-])[o+]nn3-c3ccc(Cl)cc3)sc2n1`, the “diameter of the inhibition zone (DIZ)” value in data set [1], in data set [2], in data set [4] and in data set [6] was 0 cm throughout. Moreover, the MIC in data set [3] was above 2 mg. For the same molecule, the “growth inhibition (GI)” value in data set [5] was “Non-toxic”. The GI50 in data set [7] came to 5.25 µg/mL (≈ 9.67 µM). In addition, the 50% lethal concentration (LC50) in data set [7] is above 70 µg/mL. The molecule also registered a TGI in data set [7] above 40 µg/mL.

On to `O=c1oc2ccc(Br)cc2cc1-c1cn2nc(-c3c([O-])[o+]nn3-c3ccccc3)sc2n1`, for which the “diameter of the inhibition zone (DIZ)” value in data set [1], in data set [2], in data set [4] and in data set [6] was 0 cm each time. In data set [3], the MIC is above 2 mg. For the same molecule, the “growth inhibition (GI)” value in data set [5] is listed as “Non-toxic”. The molecule further registered a GI50 in data set [7] of 5.6 µg/mL (≈ 11 µM). The same molecule displayed a median lethal concentration (LC50) in data set [7] above 70 µg/mL. The molecule further came in with a total growth inhibition concentration (TGI) in data set [7] above 30 µg/mL.

On to `COc1ccc(-n2n[o+]c([O-])c2-c2nn3cc(-c4cc5cc(Cl)ccc5oc4=O)nc3s2)cc1`, for which the “diameter of the inhibition zone (DIZ)” value was 0 cm in data set [1], 0.5 cm in data set [2], 0.8 cm in data set [4] and 0 cm in data set [6]. Further, the MIC in data set [3] came out at 1 mg. For the same molecule, the “growth inhibition (GI)” value in data set [5] is “Non-toxic”. Further, in data set [7], the GI50 stood at 3.68 µg/mL (≈ 7.45 µM). The molecule also displayed a 50% lethal concentration (LC50) in data set [7] above 70 µg/mL. In data set [7], this molecule came in with a TGI below 30 µg/mL.

For `Cc1ccc(-n2n[o+]c([O-])c2-c2nn3cc(-c4cc5cc(Br)ccc5oc4=O)nc3s2)cc1`, the “diameter of the inhibition zone (DIZ)” value in data set [1], in data set [2], in data set [4] and in data set [6] was 0 cm in each case. The MIC in data set [3] is above 2 mg. The “growth inhibition (GI)” value in data set [5] was “Non-toxic”. In data set [7], this molecule showed a 50% growth inhibitory concentration (GI50) of 6.1 µg/mL (≈ 11.7 µM). The same molecule had an LC50 in data set [7] above 70 µg/mL. Besides, in data set [7], the TGI was above 30 µg/mL.

For the molecule STANNOUS CHLORIDE, the “diameter of the inhibition zone (DIZ)” value amounted to 0.5 cm in data set [1], 0.8 cm in data set [2], 1.5 cm in data set [4] and 0.3 cm in data set [6]. For the same molecule, in data set [3], the MIC is 0.25 mg. In data set [5], the “growth inhibition (GI)” value is listed as “Non-toxic”.
